Data published in ChEMBL document CHEMBL1201862, “PubChem BioAssay data set” (2004).
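Protocol summary: plate cells (96-well), add compound at 5 concentrations, incubate 48 h, interpolate endpoints linearly. GI50 marks 50% less growth.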 Calls of active or inactive are those of the source. Cut-off read from the data, not from the text of the source: active = GI50 up to about 1.1 µM and inactive = higher.

How the values were obtained:
Experiment in all cases: growth of human tumour cells (NCI), 48 h
[1] = system: SW-620
[2] = system: NCI-H23
[3] = system: HOP-92
[4] = system: A498
[5] = system: SNB-78
[6] = system: UACC-62
[7] = system: NCI-H460
[8] = system: SNB-75
[9] = system: KM12
[10] = system: OVCAR-3
[11] = system: U-251
[12] = system: SF-539
[13] = system: OVCAR-4
[14] = system: CAKI-1
[15] = system: 786-0
[16] = system: LXFL 529
[17] = system: IGROV-1
[18] = system: CCRF-CEM
[19] = system: HT-29
[20] = system: SK-OV-3
[21] = system: NCI-H522
[22] = system: DLD-1
[23] = system: UACC-257
[24] = system: A549
[25] = system: SK-MEL-2
[26] = system: RPMI-8226
[27] = system: KM-20L2
[28] = system: TK-10
[29] = system: OVCAR-8
[30] = system: M19-MEL
[31] = system: SK-MEL-28
[32] = system: XF498
[33] = system: SR
[34] = system: LOX IMVI
[35] = system: DMS-273
[36] = system: SK-MEL-5
[37] = system: UO-31
[38] = system: DMS-114
[39] = system: ACHN
[40] = system: SF-268
[41] = system: COLO 205
[42] = system: HCT-15
[43] = system: EKVX
[44] = system: K562
[45] = system: M14
[46] = system: HOP-62
[47] = system: RXF 393
[48] = system: SF-295
[49] = system: NCI-H226
[50] = system: SNB-19
[51] = system: MOLT-4
[52] = system: HL-60
[53] = system: SN12C
[54] = system: HCT-116
[55] = system: OVCAR-5
[56] = system: Malme-3M
[57] = system: HCC 2998

`CC(=O)OC1COC(N2CCc3cc([N+](=O)[O-])ccc32)C(OC(C)=O)C1OC(C)=O` (centres undefined) was tested, and the GI50 [1] was > 100 µM (inactive), the GI50 [2] was > 100 µM (inactive) and the GI50 [3] was 36 µM (inactive). For the same compound, the GI50 [4] was 7.23 µM (inactive), the GI50 [5] was > 100 µM (inactive) and the GI50 [6] was > 100 µM (inactive). For the same compound, the GI50 [7] was > 100 µM (inactive), the GI50 [8] was > 100 µM (inactive) and the GI50 [9] was > 100 µM (inactive). For the same compound, the GI50 [10] was > 100 µM (inactive), the GI50 [11] was > 100 µM (inactive) and the GI50 [12] was > 100 µM (inactive). The GI50 [13] was > 100 µM (inactive), the GI50 [14] was > 100 µM (inactive) and the GI50 [15] was > 100 µM (inactive). For the same compound, the GI50 [16] was > 100 µM (inactive), the GI50 [17] was > 100 µM (inactive) and the GI50 [18] was > 100 µM (inactive). For the same compound, the GI50 [19] was > 100 µM (inactive), the GI50 [20] was > 100 µM (inactive) and the GI50 [21] was > 100 µM (inactive). The GI50 [22] was > 100 µM (inactive), the GI50 [23] was > 100 µM (inactive) and the GI50 [24] was > 100 µM (inactive). For the same compound, the GI50 [25] was > 100 µM (inactive), the GI50 [26] was > 100 µM (inactive) and the GI50 [27] was > 100 µM (inactive). For the same compound, the GI50 [28] was > 100 µM (inactive), the GI50 [29] was > 100 µM (inactive) and the GI50 [30] was > 100 µM (inactive). The GI50 [31] was > 100 µM (inactive), the GI50 [32] was 50.4 µM (inactive) and the GI50 [33] was > 100 µM (inactive). For the same compound, the GI50 [34] was > 100 µM (inactive), the GI50 [35] was > 100 µM (inactive) and the GI50 [36] was > 100 µM (inactive). The GI50 [37] was > 100 µM (inactive), the GI50 [38] was > 100 µM (inactive) and the GI50 [39] was > 100 µM (inactive). For the same compound, the GI50 [40] was > 100 µM (inactive), the GI50 [41] was > 100 µM (inactive) and the GI50 [42] was greater than 100 µM. For the same compound, the GI50 [43] was > 100 µM (inactive), the GI50 [44] was > 100 µM (inactive) and the GI50 [45] was > 100 µM (inactive). The GI50 [46] was > 100 µM (inactive), the GI50 [47] was > 100 µM (inactive) and the GI50 [48] was > 100 µM (inactive). The GI50 [49] was 63.7 µM (inactive), the GI50 [50] was > 100 µM (inactive) and the GI50 [51] was > 100 µM (inactive).

With `CC(=O)NC(ON1C(=O)COc2ccccc21)C(Cl)(Cl)Cl` (centres undefined) the GI50 [1] was > 100 µM (inactive), the GI50 [2] was > 100 µM (inactive) and the GI50 [3] was > 100 µM (inactive). The GI50 [5] was > 100 µM (inactive), the GI50 [6] was > 100 µM (inactive) and the GI50 [7] was > 100 µM (inactive). For the same compound, the GI50 [8] was > 100 µM (inactive), the GI50 [9] was > 100 µM (inactive) and the GI50 [10] was > 100 µM (inactive). For the same compound, the GI50 [11] was > 100 µM (inactive), the GI50 [12] was > 100 µM (inactive) and the GI50 [13] was > 100 µM (inactive). The GI50 [14] was > 100 µM (inactive), the GI50 [15] was > 100 µM (inactive) and the GI50 [16] was > 100 µM (inactive). The GI50 [17] was > 100 µM (inactive), the GI50 [19] was > 100 µM (inactive) and the GI50 [20] was > 100 µM (inactive). For the same compound, the GI50 [21] was > 100 µM (inactive), the GI50 [22] was > 100 µM (inactive) and the GI50 [23] was > 100 µM (inactive). The GI50 [24] was > 100 µM (inactive), the GI50 [25] was > 100 µM (inactive) and the GI50 [26] was > 100 µM (inactive). The GI50 [52] was > 100 µM (inactive), the GI50 [27] was > 100 µM (inactive) and the GI50 [53] was > 100 µM (inactive). For the same compound, the GI50 [28] was > 100 µM (inactive), the GI50 [29] was > 100 µM (inactive) and the GI50 [31] was > 100 µM (inactive). The GI50 [32] was > 100 µM (inactive), the GI50 [33] was > 100 µM (inactive) and the GI50 [34] was > 100 µM (inactive). For the same compound, the GI50 [35] was > 100 µM (inactive), the GI50 [37] was > 100 µM (inactive) and the GI50 [39] was > 100 µM (inactive). For the same compound, the GI50 [40] was > 100 µM (inactive), the GI50 [54] was > 100 µM (inactive) and the GI50 [41] was > 100 µM (inactive). For the same compound, the GI50 [55] was > 100 µM (inactive), the GI50 [42] was greater than 100 µM and the GI50 [44] was > 100 µM (inactive). The GI50 [45] was > 100 µM (inactive), the GI50 [46] was > 100 µM (inactive) and the GI50 [56] was > 100 µM (inactive). For the same compound, the GI50 [57] was > 100 µM (inactive), the GI50 [48] was > 100 µM (inactive) and the GI50 [49] was 33.4 µM (inactive). The GI50 [50] was > 100 µM (inactive) and the GI50 [51] was > 100 µM (inactive).

`CC(C(=O)N1C(=O)N(C(=O)C(C)C(O)c2ccccc2)C2CCCCC21)C(O)c1ccccc1` (centres undefined) was tested, and the GI50 [1] was > 100 µM (inactive), the GI50 [2] was > 100 µM (inactive) and the GI50 [5] was > 100 µM (inactive). For the same compound, the GI50 [6] was > 100 µM (inactive), the GI50 [7] was 49.1 µM (inactive) and the GI50 [9] was 37.1 µM (inactive). For the same compound, the GI50 [10] was 78.2 µM (inactive), the GI50 [11] was > 100 µM (inactive) and the GI50 [13] was 57.4 µM (inactive). The GI50 [15] was > 100 µM (inactive), the GI50 [16] was 44.1 µM (inactive) and the GI50 [17] was > 100 µM (inactive). For the same compound, the GI50 [18] was 44.2 µM (inactive), the GI50 [19] was > 10 µM (inactive) and the GI50 [21] was 46.8 µM (inactive). The GI50 [24] was 44.3 µM (inactive), the GI50 [25] was 30.3 µM (inactive) and the GI50 [26] was 34 µM (inactive). The GI50 [52] was 27.7 µM (inactive), the GI50 [27] was > 100 µM (inactive) and the GI50 [53] was > 100 µM (inactive). For the same compound, the GI50 [28] was > 100 µM (inactive), the GI50 [29] was 88.3 µM (inactive) and the GI50 [30] was 83.8 µM (inactive). The GI50 [31] was > 100 µM (inactive), the GI50 [32] was 79.6 µM (inactive) and the GI50 [33] was 28.6 µM (inactive). For the same compound, the GI50 [34] was 79.4 µM (inactive), the GI50 [35] was > 100 µM (inactive) and the GI50 [36] was 30.1 µM (inactive). For the same compound, the GI50 [37] was 34.6 µM (inactive), the GI50 [39] was 58.9 µM (inactive) and the GI50 [40] was > 100 µM (inactive). For the same compound, the GI50 [54] was > 100 µM (inactive), the GI50 [41] was > 100 µM (inactive) and the GI50 [55] was > 100 µM (inactive). The GI50 [42] was greater than 100 µM, the GI50 [43] was 81.3 µM (inactive) and the GI50 [44] was > 10 µM (inactive). The GI50 [45] was 79.8 µM (inactive), the GI50 [46] was > 100 µM (inactive) and the GI50 [56] was 57.4 µM (inactive). The GI50 [47] was 66.1 µM (inactive), the GI50 [48] was 34.9 µM (inactive) and the GI50 [50] was 92.7 µM (inactive). For the same compound, the GI50 [51] was 26.2 µM (inactive).

With `O=C(Nc1nc2ccc([N+](=O)[O-])cc2s1)C(=O)C(C(=O)c1ccccc1F)C1OC(=O)c2ccccc21` (centres undefined) the GI50 [1] was 41.3 µM (inactive), the GI50 [2] was 67.1 µM (inactive) and the GI50 [3] was > 100 µM (inactive). The GI50 [4] was 42.8 µM (inactive), the GI50 [5] was 25.1 µM (inactive) and the GI50 [6] was 29.6 µM (inactive). The GI50 [7] was 40.5 µM (inactive), the GI50 [8] was 30.9 µM (inactive) and the GI50 [9] was 55.1 µM (inactive). The GI50 [11] was 16.9 µM (inactive), the GI50 [12] was 21.3 µM (inactive) and the GI50 [13] was 46.8 µM (inactive). For the same compound, the GI50 [14] was 41.4 µM (inactive), the GI50 [16] was 34 µM (inactive) and the GI50 [17] was 75.5 µM (inactive). For the same compound, the GI50 [18] was 17.3 µM (inactive), the GI50 [19] was 40 µM (inactive) and the GI50 [20] was 29 µM (inactive). For the same compound, the GI50 [21] was 17.4 µM (inactive), the GI50 [22] was 41 µM (inactive) and the GI50 [23] was 92.5 µM (inactive). The GI50 [24] was 57 µM (inactive), the GI50 [25] was 20.4 µM (inactive) and the GI50 [26] was 16.4 µM (inactive). For the same compound, the GI50 [52] was 20.3 µM (inactive), the GI50 [27] was 49.4 µM (inactive) and the GI50 [53] was 40.5 µM (inactive). For the same compound, the GI50 [28] was 87.1 µM (inactive), the GI50 [29] was 47.9 µM (inactive) and the GI50 [30] was 31 µM (inactive). The GI50 [31] was 32.1 µM (inactive), the GI50 [32] was 48.3 µM (inactive) and the GI50 [33] was 16.8 µM (inactive). For the same compound, the GI50 [34] was 27 µM (inactive), the GI50 [35] was 33.7 µM (inactive) and the GI50 [36] was 71.9 µM (inactive). For the same compound, the GI50 [37] was 38 µM (inactive), the GI50 [38] was 25.1 µM (inactive) and the GI50 [39] was 59.4 µM (inactive). The GI50 [40] was 34.2 µM (inactive), the GI50 [54] was 37.1 µM (inactive) and the GI50 [41] was 21.3 µM (inactive). The GI50 [55] was 71 µM (inactive), the GI50 [42] was 31.2 µM and the GI50 [43] was 22.1 µM (inactive). For the same compound, the GI50 [44] was 29.9 µM (inactive), the GI50 [45] was 56.2 µM (inactive) and the GI50 [46] was 62.2 µM (inactive). The GI50 [57] was 24.9 µM (inactive), the GI50 [48] was 56 µM (inactive) and the GI50 [50] was 28.6 µM (inactive). The GI50 [51] was 17.7 µM (inactive).
